Data from PMC4985813, “Binding site elucidation and structure guided design of macrocyclic IL-17A antagonists” (Scientific Reports, 2016).
“And” between values parts separate entries of the source, which are not always exact repeats. Equal values may be shown once. “Also recorded” adds a separate entry of the source. Read-outs that look alike come from different tables or passages of the source.

Tests used:
[1] = test system: IL-17A-stimulated human keratinocytes; assay: Primary human keratinocytes cell assay, IL-8 production stimulated by IL-17A and TNF-α; assay type: cell-based; details: for IC50: Homo sapiens, Keratinocyte
Procedure: (§1) Primary human keratinocytes were cultured in Epilife medium with EDGS (Life Technology, Cascade Biologics) following product instructions. 5 days after establishing the culture from frozen vials, cells were plated at 10,000/well (80 μL) in culture media in 384-well plates. 4 h after plating, 10 μL of 10× compound stocks were added. Final DMSO concentration was 1%. Immediately after compound addition, 10 μL of a mixture of recombinant human IL-17A (R&D System, Minneapolis, MN) (5 ng/mL final) and TNF-α (Sigma-Aldrich, St Louis, MO) (10 ng/mL final), or TNF-α alone (10 ng/mL) were added to the cells. Cell assay plates were incubated for 48 h at 37 °C in a tissue culture incubator. Culture supernatants were harvested for analysis of IL-8 production using kit K211ANB-2 (Meso Scale Discovery, Rockville, MD).

IL-17F homodimer = molecular target: T1, IL-17F homodimer (Homo sapiens, UniProt Q96PD4); assay: SPR selectivity binding, immobilized IL-17F; details: for binding to IL-17F (SPR): concentrations up to 13.3 μM
T1 construct: purchased R&D Systems, Minneapolis, MN
T1 sequence (Q96PD4 31-163): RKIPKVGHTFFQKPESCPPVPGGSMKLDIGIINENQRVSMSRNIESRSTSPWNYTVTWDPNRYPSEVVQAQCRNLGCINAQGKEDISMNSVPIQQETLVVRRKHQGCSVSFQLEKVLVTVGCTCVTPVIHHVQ
Procedure: (§2) The IL-17 SPR binding assay was run on a Biacore 3000 SPR instrument (GE Healthcare). Biotinylated Bap-tagged human IL-17A[23], was captured on a Biacore Streptavidin chip to achieve a protein density of 2500–3500 RUs on the surface. The SPR running buffer was 10 mM HEPES, pH 7.4, 150 mM NaCl, 0.01% P20 with 3% DMSO. Compound samples were injected at a flow rate of 50 μL/min for 180 s association and followed by running buffer for at least 600 s to detect dissociation. Compound concentrations were varied across a 2–3 fold dilution series. Each concentration was tested at least in duplicate. When compounds were tested in the presence of HAP, the running buffer contained 50 nM of HAP and all samples were prepared in the running buffer. Multiple blank injections were run before and after each compound series for references. The data were processed and analyzed with Scrubber 2.0 (BioLogical Software) and Biaeval software (GE Healthcare) to calculate the binding constants along with on- and off-rates.
(§3) Biotinylated BAP-tagged IL-17RA ECD[17] and chemically biotinylated IL-17F (R&D Systems, Minneapolis, MN) were separately immobilized on Biacore Streptavidin chips to permit selectivity testing of compounds. The binding experiments were carried out as described above.

IL-17RA = molecular target: T2, IL-17RA (Homo sapiens, UniProt Q96F46); assay: SPR selectivity binding, immobilized IL-17RA ECD
T2 construct: Biotinylated BAP-tagged IL-17RA ECD[17]
T2 sequence (Q96F46 33-320 limits assumed): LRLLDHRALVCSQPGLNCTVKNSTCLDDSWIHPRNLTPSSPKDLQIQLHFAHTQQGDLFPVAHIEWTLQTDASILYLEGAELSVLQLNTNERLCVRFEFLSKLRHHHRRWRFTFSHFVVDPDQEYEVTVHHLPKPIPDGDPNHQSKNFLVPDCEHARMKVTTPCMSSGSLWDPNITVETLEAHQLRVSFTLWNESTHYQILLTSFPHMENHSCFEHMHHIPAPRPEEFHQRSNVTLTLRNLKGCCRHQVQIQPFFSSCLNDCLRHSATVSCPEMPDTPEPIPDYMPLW
Procedure: as §2, §3

human IL-17A = human IL-17A (Homo sapiens, UniProt Q16552); assay: SPR binding assay, immobilized IL-17A
Sequence of human IL-17A (Q16552 24-155): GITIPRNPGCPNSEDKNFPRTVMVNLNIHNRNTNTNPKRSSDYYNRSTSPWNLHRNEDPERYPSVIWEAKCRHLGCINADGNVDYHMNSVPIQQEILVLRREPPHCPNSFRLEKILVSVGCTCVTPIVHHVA
Procedure: as §2, with “When compounds were tested in the presence of HAP, the running buffer contained 50 nM of HAP and all samples were prepared in the running buffer.” left out

[2] = molecular target: T3, IL-17A/IL-17RA interaction (Homo sapiens, UniProt Q16552); assay: FRET assay of IL-17A/IL-17RA interaction; assay type: biochemical
T3 construct: purchased R&D Systems (IL-17RA-Fc only)
T3 sequence (Q16552 24-155): as above
Procedure: Maximal FRET was observed when IL-17A was bound to IL-17RA and diminished FRET was observed when IL-17A was separated from IL-17RA. […] Compounds were tested using a half-log dilution series of 11 concentrations. The IL-17A was incubated with the Europium-Streptavidin to 1.5X final assay concentration for 1 h at room temperature. Compounds were prepared at 50X final concentration in 100% DMSO and 300 nL were added to a 384-well white assay plate (Greiner). 10 μL of the Europium labeled IL-17A was added to the compounds and incubated at room temperature for 1 h. […] The plates were covered and incubated at room temperature for 3 h. The FRET signal of the IL-17A/IL-17RA interaction was measured using an EnVision Multilabel plate reader (PerkinElmer). […] A four-parameter logistic nonlinear regression model using the percent inhibition at each concentration was used to calculate an IC50 for each compound.

[3] = test system: keratinocytes stimulated by TNF-α alone; assay: Primary human keratinocytes cell assay, baseline IL-8 production stimulated by TNF-α alone; assay type: cell-based; details: Keratinocyte, TNF-α 10 ng/mL alone
Procedure: as §1

[4] = molecular target: T4, full-length recombinant IL-17A (Homo sapiens, UniProt Q16552); assay: Covalent labeling of IL-17A with sulfonyl fluoride probe (pull-down, protein mass analysis, peptide mapping); assay type: biochemical
T4 construct: made in house
T4 sequence (Q16552 24-155): as above
Procedure: Human recombinant IL-17A expressed in E. coli (5 μM) was incubated with and without compound 4 (50 μM) for 20 h at 37 °C in Dulbecco’s phosphate-buffered saline solution. To analyze cytokine homodimer, 10 μL of each sample was subjected to LC-MS using an Acquity class H UPLC (Waters) interfaced to a Xevo G2–S Q-Tof mass spectrometer (Waters). Chromatography was performed on a 2.1 × 100 mm Acquity BEH 300 Å C4 column (1.7 μm silica) (Waters) at 40 °C using the following gradient: 5% B/1 min, 5–85% B/10 min at 0.4 mL/min. Solvents: A, 0.05% formic acid in water; B, 0.05% formic acid in acetonitrile. […]
100 μL of each reaction sample was treated with three volumes of acetone at −20 °C for 2 h, after which the mixture was centrifuged at 14,000 × g for 10 min. […] Each digest was next treated with 4.5 mM DTT for 15 min at 37 °C, and 8 μL of each digest was analyzed on an Agilent Model 1100 HPLC system interfaced with a LTQ Orbitrap XL mass spectrometer (Thermo). […]
0.5 μM full length IL-17A (R&D Systems) was pre-incubated with DMSO or 50 μM a control compound in PBS at room temperature for 30 min, after which 5 μM sulfonyl fluoride probe compound 4 was added to the protein mixture (final sample volume 50 μl) and incubated for 1 h. […] Eluates were separated on a 12% NuPAGE Bis-Tris gel, transferred to a PVDF membrane, and then analyzed by immunoblot (anti-IL17A antibody from R&D Systems).

## CN(C)C(=O)CC1(CC(=O)NCCc2ccc(NC(=O)[C@H](Cc3ccccc3F)NC(=O)c3ccnn3C)cc2)CCCC1 [Compound 1]
[1]; in the presence of TNF-α
  modulation of IL-8 production in IL-17A-stimulated human keratinocytes: insufficient to modulate
IL-17F homodimer; concentrations up to 40 μM
  binding to IL-17F homodimer (SPR): no measurable binding; also recorded: did not show any measurable binding
IL-17RA; concentrations up to 40 μM
  binding to IL-17RA (SPR): no measurable binding; also recorded: did not show measurable binding

## CNC(=O)[C@H]1Cc2ccc(cc2)NC(=O)[C@@H](NC(=O)c2ccnn2C)Cc2cc(ccc2Cl)Oc2ccc(cc2)C2(CCCC2)CC(=O)N1 [Compound 2]
Human IL-17A; read-out: IL-17A SPR KD
  Kd: 199 nM
Human IL-17A; read-out: SPR KD
  Kd: < 200 nM
[2]
  IC50: < 35 nM and 34 nM
[1]; IL-17A 5 ng/mL and TNF-α 10 ng/mL, 48 h, read-out: Keratinocyte IC50 (IL-8)
  IC50: 537 nM
[1]; read-out: IC50, IL-17A-stimulated production of IL-8 in keratinocytes
  IC50: < 540 nM
IL-17F homodimer
  binding to IL-17F (SPR): did not show measurable binding
IL-17RA; concentrations up to 13.3 μM
  binding to IL-17RA (SPR): did not show measurable binding
[3]
  IC50: > 30000 nM

## CNC(=O)[C@H]1Cc2ccc(cc2)NC(=O)C(NC(=O)c2ccnn2C)Cc2cc(ccc2Cl)-c2cccc(c2)CCC(=O)N1 (some centres unmarked) [Compound 3]
IL-17F homodimer
  binding to IL-17F (SPR): no measurable binding; also recorded: did not show measurable binding
IL-17RA; concentrations up to 13.3 μM
  binding to IL-17RA (SPR): no measurable binding; also recorded: did not show measurable binding
[3]
  IC50: > 30000 nM

## C#CCNC(=O)[C@@H](Cc1ccc(NC(=O)[C@H](Cc2ccccc2F)NC(=O)c2ccnn2C)cc1)NC(=O)CC1(CC(=O)Nc2cccc(S(=O)(=O)F)c2)CCCC1 [Compound 4]
[2]
  IC50: 200 nM
[4]; in the absence of HAP
  covalent labeling of IL-17A: covalently labeled
[4]; peptide mapping
  principal site of modification of IL-17A: Tyr85
